Molecules are shown by their SMILES.

One molecule from article PMC4877593, “Design and Synthesis of Potent in Vitro and in Vivo Anticancer Agents Based on 1-(3′,4′,5′-Trimethoxyphenyl)-2-Aryl-1H-Imidazole” (Scientific Reports, 2016) can be followed below.

Data set [1] has as its system MCF-7. In words: In vitro antiproliferative activity (MTT), MCF-7. It counts as cell-based. The settings on record: Homo sapiens, MCF7, tumor cell proliferation, 72 h, mean ± SE. On the procedure: Human T-cell leukemia (CCRF-CEM and Jurkat) and human B-cell leukemia (SEM) cells were grown in RPMI-1640 medium (Gibco, Milano, Italy). Breast adenocarcinoma (MCF7), human cervix carcinoma (HeLa), and human colon adenocarcinoma (HT-29) cells were grown in DMEM medium (Gibco, Milano, Italy), all supplemented with 115 units/mL penicillin G (Gibco, Milano, Italy), 115 μg/mL streptomycin (Invitrogen, Milano, Italy), and 10% fetal bovine serum (Invitrogen, Milano, Italy). Stock solutions (10 mM) of the different compounds were obtained by dissolving them in dimethyl sulfoxide (DMSO). Individual wells of a 96-well tissue culture microtiter plate were inoculated with 100 μL of complete medium containing 8 × 10^3 cells. The plates were incubated at 37 °C in a humidified 5% CO2 incubator for 18 h prior to the experiments. After medium removal, 100 μL of fresh medium containing the test compound at different concentrations was added to each well in triplicate and incubated at 37 °C for 72 h. The percentage of DMSO in the medium never exceeded 0.25%. This was also the maximum DMSO concentration in all cell-based assays described below. […] Different concentrations of the test compounds were added, and viability was determined 72 h later by the MTT test. For cytotoxicity evaluations in resting PBL cultures, non-adherent cells were resuspended (5 × 10^5 cells/mL) and treated for 72 h with the test compounds, as described above.

Data set [2] relates to Jurkat. The experiment in a line: Mitochondrial membrane potential (JC-1), Jurkat. The format is cell-based, human. The settings on record: Jurkat, 50, 100 and 250 nM; time- and concentration-dependent. On the procedure: Mitochondria play an essential role in the propagation of apoptosis. It is well established that, at an early stage, apoptotic stimuli alter the mitochondrial transmembrane potential (Δψmt). Δψmt was monitored by the fluorescence of the dye JC-1. […] This occurred in a time- and concentration-dependent fashion, and, in both cell lines, a significant increase was observed after a 6 h treatment. The disruption of Δψmt is associated with the appearance of annexin-V positivity in the treated cells when they are in an early apoptotic stage. […] Cells were treated with the indicated concentration of compound for 24 or 48 h and then stained with the fluorescent probe JC-1 for analysis of mitochondrial potential or H2-DCFDA for the evaluation of ROS levels. Cells were then analyzed by flow cytometry as described in the experimental section.

Data set [3] deals with BL6-B16 mouse melanoma cell line. The experiment in a line: Mouse allograft (syngeneic) tumor model. The format is in vivo. The settings on record: for reduction of tumor mass: doses on days 9, 11 and 14, C57BL/6 mice. As for the experimental part:
[…] As reference compound, CA-4P (1b) was used at 30 mg/kg. The BL6-B16 mouse melanoma cell line, injected subcutaneously in syngeneic C57/BL6 mice, is able to proliferate and generate tumor masses.
Figure 9 Inhibition of mouse allograft growth in vivo by compound 4o. Male C57BL/6 mice were injected subcutaneously at their dorsal region with […] BL6-B16 murine melanoma cells. […] Injections were given intraperitoneally at the days indicated by the arrows. Data are presented as mean ± SEM of tumor volume at each time point for 5 animals per group. *p < 0.05, **p < 0.01 ***p < 0.001 vs. control.
Six week old C57BL/6 mice (Charles River, Calco) were injected subcutaneously into the dorsolateral flank with 2.5 × 10^5 BL6-B16 murine melanoma cells in 200 μL-total volume of PBS. When tumors were palpable, animals were treated intraperitoneally every other day with different doses of test compounds dissolved in 50 μL of DMSO. Tumors were measured in two dimensions, and tumor volume was calculated according to the formula V = (D × d^2)/2, where D and d are the major and minor perpendicular tumor diameters, respectively.

Data set [4] relates to HeLa. In words: ROS production (H2-DCFDA), HeLa. The note with it: in comparison with control cells. It counts as cell-based, human. On the procedure: Figure 7 Assessment of mitochondrial membrane potential (Δψmt) and production of ROS after treatment of HeLa (Panels A,B) or Jurkat (Panels C,D) cells with compound 4o. Cells were treated with the indicated concentration of compound for 24 or 48 h and then stained with the fluorescent probe JC-1 for analysis of mitochondrial potential or H2-DCFDA for the evaluation of ROS levels. Cells were then analyzed by flow cytometry as described in the experimental section.
It is also well known that dissipation of mitochondrial potential is associated with mitochondrial production of ROS[38]. Superoxide anion is produced by mitochondria due to a shift from the normal 4-electron reduction of O2 to a 1-electron reduction when cytochrome c is released from mitochondria upon apoptosis. Therefore, we investigated whether ROS production increased after treatment with compound 4o. We utilized the dye 2,7-dichlorodihydrofluorescein diacetate (H2-DCFDA), which is oxidized to the fluorescent compound dichlorofluorescein (DCF) upon ROS induction.

Setting [5] is: highest dose (7.5 mg/kg i.p.), mice, data not shown.

`CCOc1ccc(-c2nccn2-c2cc(OC)c(OC)c(OC)c2)cc1Cl` [Compound 4o, 2-(3′-Chloro-4′-ethoxyphenyl)-1-(3′,4′,5′-trimethoxyphenyl)-1H-imidazole] showed an IC50 in data set [1] of 0.7 ± 0.06 nM. Also, in data set [2], the “percentage of cells with low Δψmt (JC-1)” value was “remarkable increase”. For the same molecule, the “reduction of tumor mass” value in data set [3] (1 mg/kg i.p.) is on record as 26.0%; in data set [3] (3.5 mg/kg i.p.), 32.2%; in data set [3] (7.5 mg/kg i.p.) it was 45.8%. Besides, in data set [3] (setting [5]), the animal body weight entry is listed as “did not cause a decrease in animal body weight”. The signs of toxicity result in data set [3] (setting [5]) is on record as “did not present any sign of toxicity”. Also, the “ROS production (H2-DCFDA)” value in data set [4] is on record as “induced the production of large amounts of ROS”.

One may read the IC50 as the concentration that inhibits the measured activity by half.
